Data set [1] in a line: Cell death induced by the PE probe. It counts as cell-based. The settings on record: data not shown.
Data set [2] concerns A549 cell xenograft. The data set is described as follows: TUNEL staining of treated tumours. It counts as in vivo, athymic nude mice. The settings on record: si‐hSMAC‐A‐TTs, data not shown.
For the next data set, the system named is phospholipid levels. As to the kind of experiment: Total PL, PC and PE levels in treated tumours. In kind it is in vivo. The following applies: si‐hSMAC‐A‐TTs relative to si‐NT‐TTs, n = 6 mice per group. Here is the method: Total lipids were extracted from the SMAC‐KO and wild‐type A549/HEK 293T cells by the Folch method. Briefly, a cell suspension (2 × 10^7 cells/mL) was made in CHCl3/MeOH (2 : 1, v/v) sonicated for 30 s. Water (116 μL·mL^−1) was added to the suspension and shaken for 2 h at room temperature at 300 r.p.m. The aqueous suspension was heated for 10 min at 60 °C and stored at 4 °C for 3 h. Undissolved material was filtered through a 0.45‐μm syringe filter. Solvent was evaporated under nitrogen, and residues were re‐dissolved in CHCl3/MeOH for lipid analysis.
Total phospholipid content of the cells was determined calorimetrically at 488 nm based on the formation of a complex between the PLs and ammonium ferrothiocyanate. PC level was also determined by calorimetric analysis at 316 nm using ammonium thiocyanatocobaltate reagent, as described previously.
(§1) PE content in the lipid samples was measured as described previously. Briefly, solvent was evaporated from the lipid samples under nitrogen gas, and samples were resuspended in 0.8 mM Triton X‐100. Sample aliquots were added to 96‐well plates containing (50 µL) reaction mixture (80 mM NaCl, 2 mM K2HPO4, pH 7.4) and of borate buffer (12.5 µL) (100 mM boric acid, 75 mM NaCl, 25 mM sodium tetraborate, pH 9). After mixing, 12.5 µL of 100 µM DSB‐3, in 10 mM K2HPO4 (pH 7.4), was then added and incubated for 2 h in the dark with shaking (100 r.p.m.). Fluorescence was measured using excitation λex = 403 nm and emission λem = 508 nm. A calibration curve was obtained using PE (Biovision) as a standard.
(§2) Results are presented as the mean tumour volume ± SEM. […] Results are the means ± SEM.

Another data set relates to Ki‐67. The settings on record: si‐hSMAC‐A‐TTs versus si‐NT‐TTs, IHC.
For data set [3], the system named is A549 cell xenograft. The data set is described as follows: A549 lung cancer xenograft tumour growth. It counts as in vivo, athymic nude mice. The following applies: relative to si‐NT‐treated tumours, nude mice, n = 8 mice/group. Here is the method: Male Hsd:Athymic ' Nude‐Foxn1nu mice (6–8 weeks old) were obtained from Envigo and were kept in the university animal facility in temperature‐controlled rooms and provided with water and food pellets ad libitum. All procedures involving mice were approved by the Ben‐Gurion Institutional Animal Care and Use Committee.
Lung cancer A549 (3 × 10 ^6 ) cells were implanted subcutaneously on the dorsal flanks. Tumour growth was recorded using digital calibre, and volumes were calculated using, volume = X^2 × Y/2, where X and Y are the short and long tumour dimensions, respectively. Mice were divided randomly into three groups once the average tumour volume reached ˜ 80 mm^3 and were treated subcutaneously with si‐NT or si‐hSMAC‐A mixed with JetPEI reagent (350 or 700 nM final concentration) three times a week. Mice were sacrificed at the end of experiment, and the tumours were excised and processed for immunohistochemistry (IHC) or frozen in liquid nitrogen for immunoblotting and RNA isolation.
as §2

Another data set concerns SMAC/Diablo. As to the kind of experiment: SMAC expression in treated tumours (immunoblot, IHC). The settings on record: si‐hSMAC‐A‐TTs versus si‐NT‐TTs, n = 6 mice/group. In kind it is in vivo, human. On the procedure: Cells were harvested and washed twice with ice‐cold PBS, and the pellets were lysed on ice for 30 min in a lysis buffer (50 mM Tris/HCl, pH 7.5, 150 mM NaCl, 1 mM EDTA, 1.5 mM MgCl2, 10% glycerol, 1% Triton X‐100), freshly supplemented with a protease inhibitor cocktail (Calbiochem) and centrifuged (10 min, 12 000 g ). The protein concentration of the supernatant was determined, and cells were stored at −80 °C until used for gel electrophoresis and immunoblotting. Protein samples (10–20 μg) were subjected to SDS‐PAGE and immunoblotting, using the selected primary antibodies, followed by incubation with HRP‐conjugated secondary antibodies. HRP activity was determined using EZ‐ECL (Biological Industries). Band intensity was quantified using FUSION‐FX (Vilber Lourmat, Collégien, France).
as §2
On the technique in general: Immunoblotting shows a protein as a band on a membrane.

For data set [4], the system named is VDAC1‐IP3R close association (MAM). As to the kind of experiment: In‐situ proximity ligation assay VDAC1‐IP3R (MAM) in tumour sections. It counts as in vivo. The following applies: si‐hSMAC‐A‐TTs sections relative to si‐NT‐TTs. On the procedure:
PLA was conducted as previously described using an in␣situ detection reagent red kit (DuoLink InSitu PLA Probe kit; Sigma‐Aldrich) according to the manufacturer’s protocol. VDAC1‐IP3R and SMAC‐PSD were analysed using PLA [24]. Briefly, for tumour section, formalin‐fixed and paraffin‐embedded tumour sections (5‐μm thick) were deparaffinized and then permeabilized using 0.3% Triton X‐100 in PBS for 30 min, followed by blocking with Duolink® Blocking Solution for 1 h. Sections were incubated overnight with anti‐VDAC1 (rabbit 1 : 750) and anti‐IP3R (mouse, 1 : 750), washed twice with TBS‐Tween (0.01%) and then incubated for 1 h with the secondary anti‐mouse and anti‐rabbit antibodies (PLA probe MINUS and PLUS) that were conjugated to complementary oligonucleotide extensions, and ligation and amplification steps were performed per manufacturer’s instructions, and Texas red‐labelled oligonucleotide probes were detected.
Fig. 3 Subcellular morphological alterations including ER‐mitochondria contact sites, as induced by reduction of SMAC levels. […] (C) and subjected to quantitative analysis (n = 5) (D). […] Images at high magnification (Ea,b) (scale bars represent 20, 5 µm as indicated) and ligation product quantification (F) are also shown.

For the next data set, the target named is T1, purified PSD (Homo sapiens, UniProt Q9UG56).
T1 construct: Purified recombinant protein (full length) of human phosphatidylserine decarboxylase (PSD); His tag (N); purchased Acris-OriGene; host or cells: E. coli
T1 sequence (Q9UG56 53-409): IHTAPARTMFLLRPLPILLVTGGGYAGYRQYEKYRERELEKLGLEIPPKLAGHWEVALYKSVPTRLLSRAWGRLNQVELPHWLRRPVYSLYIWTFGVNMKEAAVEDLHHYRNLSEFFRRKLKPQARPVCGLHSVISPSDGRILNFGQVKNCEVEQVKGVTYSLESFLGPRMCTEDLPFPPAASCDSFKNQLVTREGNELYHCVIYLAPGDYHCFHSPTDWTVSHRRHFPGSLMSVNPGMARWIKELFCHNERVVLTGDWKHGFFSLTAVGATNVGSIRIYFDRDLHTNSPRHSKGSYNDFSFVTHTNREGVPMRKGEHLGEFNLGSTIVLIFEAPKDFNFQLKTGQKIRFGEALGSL
As to the kind of experiment: PSD activity, DSB‐3 method. In kind it is biochemical. The settings on record: PS 50 μM, 45 min, 30 °C, n = 4, read-out: IC50, SMAC‐inhibiting PSD activity. Here is the method:
as §1
To determine PSD activity, purified enzyme (0.2–0.4 μM) or crude cell lysate (0.25–0.5 μg of protein) was incubated with PS (50 μM) for 45 min at 30 °C in the dark with shaking under the conditions described above for PE determination. PSD activity was measured by determining the PE produced as described above, except that the signal obtained in the absence of substrate PS (representing endogenous PE) was subtracted from the signal obtained in the presence of PS.
Human recombinant SMAC (10339‐H08E) was produced by Sino Biologicals (Wayne, PA, USA). […]

Data on three molecules can be found in article PMC8564633, “SMAC/Diablo controls proliferation of cancer cells by regulating phosphatidylethanolamine synthesis” (Molecular Oncology, 2021).

By IC50 is commonly meant the midpoint of a concentration-inhibition curve.

Experimental for Ki‐67: Formalin‐fixed and paraffin‐embedded tumour sections were deparaffinized using xylene and a series of ethanol treatments. Sections were then incubated with 3% H2O2 for 10 min to block endogenous peroxidase activity. Antigen retrieval was done in 0.01 M citrate buffer (pH 6.0) at 95–98 °C for 30 min and washed with PBST (0.1% Tween‐20). In order to reduce nonspecific binding, sections were incubated in 10% NGS for 2 h and then incubated with primary antibodies (Table S1) overnight at 4 °C. For IHC, after washing with PBST, sections were incubated for 2 h at room temperature with HRP‐conjugated secondary antibodies, washed well with PBST and incubated with the substrate DAB Sections were washed with water, counterstained with haematoxylin and mounted with Vectashield mounting medium (Vector Laboratories). Sections were observed under a microscope (Leica DM2500, Wetzlar, Germany), and images were collected at 20× magnification with the same light intensity and exposure time. For IF, following overnight incubation with the primary antibodies, PBST‐washed sections were incubated with fluorescent‐tagged secondary antibodies for 2 h at room temperature in the dark. […]
(D‐F) IHC stained of si‐hSMAC‐ or si‐NT‐TTs sections for SMAC (D), Ki‐67 (E), and their quantitative analysis (F) (n = 6 mice/group). […]

Turning to Distyrylbenzene‐bis‐aldehyde [DSB‐3], the cell death result in data set [1] was “no cell death”.

“si‐hSMAC‐A: Human SMAC/Diablo‐specific siRNA, sense 5′AAGCGGUGUUUCUCAGAATTGtt3′, antisense 5′AACAAUUCUGAGAAACCCG Ctt3′ (sense AAGCGGUGUUUCUCAGAATTGTT; antisense AACAAUUCUGAGAAACCCGCTT; chemistry not given here)”: the “cell death, TUNEL staining” value in the data set with A549 cell xenograft [2] is on record as “No cell death was detected”. In addition, the “levels of PE increased” value in the data set on phospholipid levels (DSB‐3 probe) was 200%. The “levels of PC decreased” value in the data set with phospholipid levels came out at 65%. Besides, the “levels of PLs decreased” value in the data set with phospholipid levels came to 50%. Also, the “expression of Ki‐67, cell proliferation marker” value in the data set with Ki‐67 is “highly reduced”. Also, the tumour volume reduced amounted to 50% with A549 cell xenograft [3] (si‐hSMAC‐A 350 nM) and 85% in the data set with A549 cell xenograft [3] (si‐hSMAC‐A 700 nM). In addition, the SMAC/Diablo level decreased with SMAC/Diablo was found to be 75%. Moreover, the “PLA signal VDAC1‐IP3R” value in data set [4] is “over fourfold”.

B1: SMAC: Human recombinant SMAC (10339‐H08E) produced by Sino Biologicals (protein)
chain: LCVPVVANFKKRCFSELIRPWHKTVTIGFGVTLCAVPIAQKSEPHSLSSEALMRRAVSLVTDSTSTFLSQTTYALIEAITEYTKAVYTLTSLYRQYTSLLGKMNSEEEDEVWQVIIGARAEMTSKHQEYLKLETTWMTAVGLSEMAAEAAYQTGADQASITARNHIQLVKLQVEEVHQLSRKAETKLAEAQIEELRQKTQEEGEERAESEQEAYLRED
modifications: fluorescently labelled with the NanoTemper Protein labelling kit BLUE (in the MST with PSD only)
notes: Human recombinant SMAC (10339‐H08E) produced by Sino Biologicals
With B1, in the data set with purified PSD, the concentration for half-maximal inhibition (IC50) is 0.4 µM.
